Experimental findings from patent publication US20060211672A1, “Use of estrogen receptor-beta selective agonists for radiation-or chemotherapy-induced mucositis and radiation cystitis” (Wyeth, priority 2005, published 2006) are described below.

The assay has as its system radiation-induced mucositis. As to the kind of experiment: Acute radiation model of oral mucositis in hamsters. In kind it is in vivo, Syrian Golden Hamsters. Conditions: for % Days with mucositis score ≧3 / Days with mucositis score ≧3: once daily beginning on day -1, 40 Gy radiation day 0, scored day 6 to 28; for Days with mucositis score ≧3: Total Days 240. The source says: The acute radiation model in hamsters has proven to be an accurate, efficient and cost-effective technique to provide a preliminary evaluation of anti-mucositis compounds (Sonis et al., Oral Surg Oral Med Oral Pathol 1990; 69(4):437-448). The course of mucositis in this model is well defined and results in peak scores approximately 14-16 Days following radiation. The acute model has little systemic toxicity, resulting in few hamster deaths which makes the acute model amenable for initial efficacy studies. The acute model has also been used to study specific mechanistic elements in the pathogenesis of mucositis.
Forty (40) Male LVG Syrian Golden Hamsters (Charles River Laboratories), aged 5 to 6 weeks, with average body weight of 116.3 g at study commencement, were used. Animals were individually numbered using an ear punch and housed 10 animals per cage. Animals were fed with a Purina Labdiet® 5061 rodent diet and water was provided ad libitum. Animals were acclimatized for two days prior to study commencement.
Animals were randomly and prospectively divided into four (4) treatment groups prior to irradiation. Mucositis was induced using a standardized acute radiation protocol, where a single dose of radiation (40 Gy/dose) was administered to all animals on day 0. Radiation was generated with a 160 kilovolt potential (15-ma) source at a focal distance of 30 cm, hardened with an AI filtration system. Irradiation targeted the left buccal pouch mucosa at a rate of 3.2 Gy/minute. Prior to irradiation, animals were anesthetized with an intra-peritoneal injection of Ketamine (160 mg/kg) and Xylazine (8 mg/kg). The left buccal pouch was everted, fixed and isolated using a lead shield.
Controls or 3-(3-Fluoro-4-hydroxy-phenyl)-7-hydroxy-naphthalene-1-carbonitrile (Compound 1) were given in the volumes and by the routes described in Table 1 and dosing began the day before radiation treatment.
The grade of mucositis was scored, beginning day 6, and for every second day thereafter, through and including day 28. For the evaluation of mucositis, the animals were anesthetized with an inhalation anesthetic, and the left pouch everted. Mucositis was scored visually by comparison to a validated photographic scale, ranging from 0 for normal, to 5 for severe ulceration (clinical scoring). In descriptive terms, this scale is defined as follows: Score: Description: • 0 Pouch completely healthy. No erythema or vasodilation. • 1 Light to severe erythema and vasodilation. No erosion of mucosa. • 2 Severe erythema and vasodilation. Erosion of superficial aspects of mucosa leaving denuded areas. Decreased stippling of mucosa. • 3 Formation of off-white ulcers in one or more places. Ulcers may have a yellow/gray appearance due to pseudomembrane. Cumulative size of ulcers should equal about ¼ of the pouch. Severe erythema and vasodilation. • 4 Cumulative seize of ulcers should equal about ½ of the pouch. Loss of pliability. Severe erythema and vasodilation. • 5 Virtually all of pouch is ulcerated. Loss of pliability (pouch can only partially be extracted from mouth)
A score of 1-2 is considered to represent a mild stage of the disease, whereas a score of 3-5 is considered to indicate moderate to severe mucositis.
The effect on mucositis of each route of administration of Compound 1 compared to vehicle was assessed by determining the difference in the number of days hamsters in each group have ulcerative (score ≧3) mucositis. Statistical significance was assessed by a Chi-squared test and p<0.05 was considered statistically significant.

`N#Cc1cc(-c2ccc(O)c(F)c2)cc2ccc(O)cc12` [Compound 1, 3-(3-Fluoro-4-hydroxy-phenyl)-7-hydroxy-naphthalene-1-carbonitrile]: for the setting “Gavage, 10 mg/kg”, the “% Days with mucositis score ≧3” value is on record as 44% and the “Days with mucositis score ≧3” value is on record as 106 days. Besides, under “Topical (intrapouch), 500 nM”, the “% Days with mucositis score ≧3” value was found to be 30% and the “Days with mucositis score ≧3” value worked out at 72 days. The “change in the number of days hamsters had ulcerative (score ≧3) mucositis, in words” value (administered by gavage, vs vehicle) is given as “no significant change”. For the same compound, the “number of days animals experienced ulcerative mucositis, in words” value (administered topically (into the pouch), vs vehicle) is “significantly reduced”.
